According to patent publication US6699459B2, “Methods of treating lung inflammation” (The Board of Regents of the University of Texas System, priority 2001, dated 2004):

Legend:
IRF-3 = test: Western blot of nuclear IRF-3 in RSV-infected A549 cells; assay type: cell-based, human
Procedure: Western Immunoblot. Total cell lysates and cytoplasmic and nuclear proteins were prepared as previously described, fractionated by SDS-PAGE and transferred to PVDF membrane (20). Membranes were blocked with 5% albumin in TBS-Tween and incubated overnight with a rabbit polyclonal antibody to IRF-1, -3 and -7 (Santa Cruz Biotech, Santa Cruz, Calif.). For secondary detection, a horseradish-coupled anti-rabbit or anti-mouse antibody was used in the enhanced chemiluminescence assay (Amersham Pharmacia Biotec, Arlington Heights, Ill.).

IRF-7 ISRE = test: EMSA of IRF-7 ISRE binding complexes, nuclear extracts of RSV-infected A549 cells; assay type: cell-based, human; settings: all time points, 400 μM
Procedure: Electrophoretic mobility shift assay (EMSA): Nuclear extracts of uninfected and infected A549 cells were prepared using hypotonic/nonionic detergent lysis, as previously described (20). Proteins were normalized by protein assay (Protein Reagent, Bio-Rad, Hercules, Calif.) and used to bind to a duplex oligonucleotide corresponding to the IRF-1 gamma interferon activated sequence (GAS) and IRF-7 ISRE, whose sequences are shown below.
DNA-binding reactions contained 10-15 μg nuclear proteins, 5% glycerol, 12 mM HEPES, 80 mM NaCl, 5 mM DTT, 5 mM Mg2Cl, 0.5 mM EDTA, 1 μg of poly dI-dC and 40,000 cpm of ^32P-labeled double-stranded oligonucleotide in a total volume of 20 μl. The nuclear proteins were incubated with the probe for 15 minutes at room temperature and then fractionated by 4% nondenaturing polyacrylamide gels (PAGE) in 0.5× TBE buffer (22 mM Tris-HCl, 22 mM boric acid, 0.25 MM EDTA, pH 8), at 120 volts. After electrophoretic separation, gels were dried and exposed for autoradiography using Kodak XAR film at −70° C. using intensifying screens. In the gel mobility supershift, commercial antibodies against specific transcription factors were added to the binding reactions and incubated on ice for one hour prior to fractionation on 6% PAGE.

NF-κB = test: RSV-induced NF-κB nuclear translocation and DNA-binding in A549 cells; assay type: cell-based, human; settings: data not shown
STAT-1 = test: Western blot of phosphorylated and total nuclear STAT-1 in RSV-infected A549 cells; assay type: cell-based, human; settings: nuclear proteins, 400 μM
Procedure: Western Immunoblot. Nuclear proteins were prepared as previously described, fractionated by SDS-PAGE and transferred to PVDF membrane (20). Membranes were blocked with 5% albumin in TBS-Tween and incubated overnight with antibody recognizing the tyrosine phosphorylated form of STAT-1 and STAT-3 (Santa Cruz Biotech, Santa Cruz, Calif.). Membranes were stripped and reprobed with antibodies to STAT-1 and STAT-3 (Santa Cruz Biotech, Santa Cruz, Calif.). For secondary detection, a horseradish-coupled anti-rabbit or anti-mouse antibody was used (Santa Cruz Biotech, Santa Cruz, Calif.) in the enhanced chemiluminescence assay (Amersham Life Science, Arlington Heights, Ill.).

human IRF-1 promoter = test: IRF-1 promoter luciferase reporter in A549 cells; assay type: cell-based
Procedure: Cell transfection. To investigate IRF-1 and -7 gene transcription, A549 cells were transiently transfected with the IRF-1 or -7 promoter, linked to the luciferase reporter gene. Logarithmically growing A549 cells were transfected in triplicate in 60 mm petri dishes by DEAE-Dextran, as previously described (20). Cells were incubated in 2 ml of HEPES buffered DMEM (10 mM Hepes, pH 7.4) containing 20 μl of 60 mg/ml DEAE-Dextran (Amersham Pharmacia Biotec, Arlington Heights, Ill.) premixed with 6 μg of either IRF-1 or -7 plasmids and 1 μg CMV-β galactosidase internal control plasmid. After 3 hours, media was removed and 0.5 ml of 10% (v/v) DMSO in PBS was added to the cells for 2 minutes. Cells were washed with PBS and cultured overnight in 10% FBS/DMEM. The next morning, cells were infected with RSV and cells were lysed at different times post-infectionto measure independently luciferase and galactosidase reporter activity, as previously described (20). Luciferase was normalized to the internal control galactosidase activity. All experiments were performed in duplicate or triplicate.

A549 cells = test: Total number of cells and cell viability by trypan blue exclusion; assay type: cell-based, human; settings: 400 μM, data not shown
Procedure: Cell culture and infection of epithelial cells with RSV. A549, human alveolar type II-like epithelial cells (ATCC, Manassas, Va.), were maintained in F12K medium containing 10% (v/v) fetal bovine serum (FBS), 10 mM glutamine, 100 IU/ml penicillin and 100 μg/ml streptomycin. Small alveolar epithelial cells (SAE) were obtained from Clonetics (San Diego, Calif.) and grown according to the company instructions. Cell monolayers were infected with RSV at multiplicity of infection (MOI) of 1 (unless otherwise stated), as described (17). An equivalent amount of a 20% sucrose solution was added to uninfected A549 cells, as a control. For the antioxidant experiments, cells were pretreated with the antioxidants for one hour and then infected in the presence of the antioxidants. Since BHA was diluted in ethanol, equal amounts of ethanol were added to untreated cells, as a control. Total number of cells, cell viability and viral replication, following antioxidant treatment, were measured by trypan blue exclusion and by plaque assay, respectively.

IRF-7 mRNA = test: Northern blot of IRF-7 mRNA in RSV-infected A549 cells; assay type: cell-based, human; settings: 400 μM
Procedure: (§1) Northern Blot. Total RNA was extracted from control and infected A549 cells by the acid guanidium thiocyanate-phenol chloroform method (18). Twenty micrograms of RNA were fractionated on a 1.2% agarose-formaldehyde gel, transferred to nylon membranes and hybridized to a radiolabeled RANTES, IRF-1, -3 and -7 cDNAs, as previously described (19). Hybridization temperature for all probes was 55° C. After washing, membranes were exposed for autoradiography using Kodak XAR film at −70° C. using intensifying screens. After exposure, membranes were stripped and rehybridized with a β-actin probe.

IRF-3 mRNA = test: Northern blot of IRF-3 mRNA in RSV-infected A549 cells; assay type: cell-based, human; settings: data not shown
Procedure: as §1

## COc1ccc(O)c(C(C)(C)C)c1 [BHA, butylated hydroxyanisol]
IRF-3
  the other RSV-inducible nuclear form of IRF-3: not affected
IRF-7 ISRE
  binding of the RSV-inducible complexes to the IRF-7 ISRE probe: greatly reduced
NF-κB
  RSV-induced NF-κB nuclear translocation and DNA-binding: did not affect
STAT-1
  RSV-induced STAT-1 phosphorylation: completely blocked
  RSV-inducible nuclear STAT-1 form: disappears
  nuclear STAT-1 form present in uninfected and infected cells: not affected
Human IRF-1 promoter; A549 cells
  basal level of transcription (IRF-1 promoter): did not affect
Human IRF-1 promoter; RSV 12 hours, 400 μM
  RSV-induced luciferase activity (IRF-1 promoter): completely abolished
A549 cells
  total cell number and viability: unchanged
IRF-7 mRNA; 6 and 12 hours post-infection
  IRF-7 mRNA accumulation: almost completely blocked
IRF-7 mRNA; 24 hours post-infection
  IRF-7 mRNA accumulation: significantly reduced
IRF-3 mRNA
  IRF-3 mRNA level: unaffected
